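Cells were grown in 96-well plates and exposed to each compound for 48 hours at five concentrations; endpoints were interpolated linearly between bracketing concentrations, or set to the highest concentration if not reached. The concentration for 50% growth inhibition is given as GI50. TGI: concentration producing complete growth inhibition.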
What was measured:
Assay in all cases: growth of human tumour cells (NCI), 48 h
SR leukemia = system: SR leukemia
M14 melanoma = system: M14 melanoma
NCI-H23 lung = system: NCI-H23 lung
HCC-2998 colon = system: HCC-2998 colon
RXF 393 renal = system: RXF 393 renal
OVCAR-8 ovarian = system: OVCAR-8 ovarian
EKVX NSCLC = system: EKVX NSCLC
HT29 colon = system: HT29 colon
IGROV1 ovarian = system: IGROV1 ovarian
OVCAR-5 ovarian = system: OVCAR-5 ovarian
KM12 colon = system: KM12 colon
NCI-H522 lung = system: NCI-H522 lung
786-0 renal = system: 786-0 renal
SN12C renal = system: SN12C renal
SF-539 CNS = system: SF-539 CNS
SK-OV-3 ovarian = system: SK-OV-3 ovarian
HL-60(TB) leukemia = system: HL-60(TB) leukemia
DU-145 prostate = system: DU-145 prostate
U251 CNS = system: U251 CNS
NCI-H460 lung = system: NCI-H460 lung
T-47D breast = system: T-47D breast
A498 renal = system: A498 renal
MOLT-4 leukemia = system: MOLT-4 leukemia
PC-3 prostate = system: PC-3 prostate
HS 578T breast = system: HS 578T breast
NCI-H226 lung = system: NCI-H226 lung
SNB-75 CNS = system: SNB-75 CNS
ACHN renal = system: ACHN renal
MALME-3M melanoma = system: MALME-3M melanoma

In the case of `N#Cc1ccc(/C=N/NC(=O)c2[nH]c3ccc(Br)cc3c2-c2ccccc2)s1`, the GI50 (SR leukemia) is reported as 99.2 nM, the TGI (SR leukemia) is reported as greater than 38.8 µM and the GI50 (M14 melanoma) is reported as 235 nM. The TGI (M14 melanoma) was 14.6 µM, the GI50 (NCI-H23 lung) was 254 nM and the TGI (NCI-H23 lung) was 12 µM. The GI50 (HCC-2998 colon) was 488 nM, the TGI (HCC-2998 colon) was 9.65 µM and the GI50 (RXF 393 renal) was 222 nM. For the same molecule, the TGI (RXF 393 renal) was 487 nM, the GI50 (OVCAR-8 ovarian) was 204 nM and the TGI (OVCAR-8 ovarian) was 2190 nM. For the same molecule, the GI50 (EKVX NSCLC) was 1210 nM, the TGI (EKVX NSCLC) was 26.3 µM and the GI50 (HT29 colon) was 148 nM. The TGI (HT29 colon) was 6.9 µM, the GI50 (IGROV1 ovarian) was 221 nM and the TGI (IGROV1 ovarian) was 9.1 µM. It also gave a GI50 (OVCAR-5 ovarian) of 439 nM, a TGI (OVCAR-5 ovarian) of 24.6 µM and a GI50 (KM12 colon) of 793 nM. The TGI (KM12 colon) was 18.7 µM, the GI50 (NCI-H522 lung) was 78.5 nM and the TGI (NCI-H522 lung) was 262 nM. For the same molecule, the GI50 (786-0 renal) was 395 nM, the TGI (786-0 renal) was 13.2 µM and the GI50 (SN12C renal) was 227 nM. It also gave a TGI (SN12C renal) of 6.33 µM, a GI50 (SF-539 CNS) of 87.8 nM and a TGI (SF-539 CNS) of 543 nM. It also gave a GI50 (SK-OV-3 ovarian) of 993 nM, a TGI (SK-OV-3 ovarian) of 15.3 µM and a GI50 (HL-60(TB) leukemia) of 52.9 nM. It also gave a TGI (HL-60(TB) leukemia) of 617 nM, a GI50 (DU-145 prostate) of 365 nM and a TGI (DU-145 prostate) of 13.7 µM. For the same molecule, the GI50 (U251 CNS) was 312 nM, the TGI (U251 CNS) was 5.79 µM and the GI50 (NCI-H460 lung) was 340 nM. For the same molecule, the TGI (NCI-H460 lung) was 2250 nM, the GI50 (T-47D breast) was 2460 nM and the TGI (T-47D breast) was 27.3 µM. The GI50 (A498 renal) was 6.54 µM, the TGI (A498 renal) was 22.5 µM and the GI50 (MOLT-4 leukemia) was 243 nM. For the same molecule, the TGI (MOLT-4 leukemia) was 30.2 µM, the GI50 (PC-3 prostate) was 304 nM and the TGI (PC-3 prostate) was 12.3 µM. It also gave a GI50 (HS 578T breast) of 616 nM, a TGI (HS 578T breast) of 24.7 µM and a GI50 (NCI-H226 lung) of 579 nM. It also gave a TGI (NCI-H226 lung) of 6.27 µM, a GI50 (SNB-75 CNS) of 630 nM and a TGI (SNB-75 CNS) of 5.36 µM. For the same molecule, the GI50 (ACHN renal) was 277 nM, the TGI (ACHN renal) was 9.75 µM and the GI50 (MALME-3M melanoma) was 564 nM.

From PubChem BioAssay (NCI)
